Assay [1] relates to MDA-MB-231 cells. The assay is described as follows: Sulforhodamine B antiproliferative assay, MDA-MB-231. The class given is cell-based, human. As to conditions: for IC50: sulforhodamine B assay, 48 h of treatment, read-out: IC50 MDA-MDB-231 (A); for SI E/A / SI D/A: selectivity index; for SI E/A: HFF-1 vs MDA-MB-231; for SI D/A: MCF12A vs MDA-MB-231. The procedure: (§1) The antiproliferative effect of the isolated compounds (1–11) was investigated by the sulforhodamine B assay against human triple-negative breast cancer cell lines (MDA-MB-468 and MDA-MB-231) and breast ductal carcinoma cells (MCF-7) and the non-tumorigenic fibroblast (HFF-1) and breast cell lines (MCF12A). The IC50 values were determined after 48 h of treatment (Table 1).
(§2) Human breast adenocarcinoma MDA-MB-231, MDA-MB-468, and MCF-7 cell lines and non-tumorigenic foreskin fibroblast (HFF-1) and breast (MCF12A) cell lines were purchased from American Type Culture Collection (ATCC, Rockville, MD, USA). All cancer cell lines, except MCF12A, were routinely cultured in RPMI-1640 medium with glutamine from Corning (VWR, Carnaxide, Portugal) supplemented with 10% fetal bovine serum (FBS) from Biowest (Labclinics, Barcelona, Spain). MCF12A cells were cultured in a 1:1 mixture of Dulbecco’s modified Eagle’s medium and Ham’s F12 medium, 20 ng/mL human epidermal growth factor, 100 ng/mL cholera toxin, 0.01 mg/mL bovine insulin, and 500 ng/mL hydrocortisone and supplemented with 10% FBS. All cells were maintained in a humidified incubator at 37 °C with 5% CO2. All cells were routinely tested for mycoplasma contamination using the MycoAlertTM PLUS detection kit (Lonza, Basel, Switzerland).
(§3) Human cell lines were seeded in 96-well plates at a density of 5.0 × 10^3 (MDA-MB-231, MCF-7, HFF-1, and MCF12A) and 7.5 × 10^3 (MDA-MB-468) cells/well and allowed to adhere for 24 h. Cells were treated with serial dilutions of compounds (ranging from 0.1 to 40 μM) for an additional 48 h. Effect on cell proliferation was measured by sulforhodamine B assay, as described in [33], and the half-maximal inhibitory concentration (IC50) was then determined for each cell line using the GraphPad Prism software version 7.0 (La Jolla, CA, USA).
(In general: In SRB staining, fixed cells bind dye roughly in proportion to their protein.)

For assay [2], the system named is MDA-MB-231 cells. Also on record: method as in PMID 28756149. As to conditions: previous studies ref 30; cited from earlier work.
For the next assay, the system named is HFF-1 cells. As to the kind of experiment: Sulforhodamine B antiproliferative assay, non-tumorigenic fibroblast HFF-1. As to conditions: Homo sapiens, 48 h of treatment, read-out: IC50 HFF-1 (E). The assay is classed as cell-based. On the procedure: as §1, §2, §3
Assay [3] has as its system breast cancer cell lines (MDA-MB-231, MDA-MB-468, MCF-7). As to the kind of experiment: Sulforhodamine B assay, all breast cancer cell lines. As to conditions: Homo sapiens, read-out: IC50 values against all breast cancer cell lines. The class given is cell-based. The procedure: Aiming to find Amaryllidaceae alkaloids against breast cancer, including the highly aggressive triple-negative breast cancer, the phytochemical study of Pancratium maritimum was carried out. Several Amaryllidaceae-type alkaloids, bearing scaffolds of the haemanthamine-, homolycorine-, lycorine-, galanthamine-, and tazettine-type were isolated (3–11), along with one alkamide (2) and a phenolic compound (1). The antiproliferative effect of compounds (1–11) was evaluated by the sulforhodamine B assay against triple-negative breast cancer cell lines MDA-MB-231 and MDA-MB-468, breast cancer cells MCF-7, and the non-malignant fibroblast (HFF-1) and breast (MCF12A) cell lines. […] The homolycorine-type alkaloid 7 was selected for further investigation in MDA-MB-231 cells. In the annexin-V assay, compound 7 increased cell death by apoptosis, which was substantiated, in western blot analyses, by the increased expression of the pro-apoptotic protein Bax, and the decreased expression of the anti-apoptotic protein Bcl-xL. Consistently, it further stimulated mitochondrial reactive oxygen species (ROS) generation. The antiproliferative effect of compound 7 was also associated with G2/M cell cycle arrest, which was supported by an increase in the p21 protein expression levels.
as §3

For the next assay, the system named is MDA-MB-468 cells. As to the kind of experiment: Sulforhodamine B antiproliferative assay, MDA-MB-468. The assay is classed as cell-based, human. As to conditions: for IC50: sulforhodamine B assay, 48 h of treatment; for SI E/B / SI D/B: selectivity index; for SI E/B: HFF-1 vs MDA-MB-468; for SI D/B: MCF12A vs MDA-MB-468. On the procedure:
as §1, §2, §3

In a further assay the test system is MCF12A cells. The assay is described as follows: Sulforhodamine B antiproliferative assay, non-tumorigenic breast MCF12A. As to conditions: Homo sapiens, MCF-12A, 48 h of treatment, read-out: IC50 MCF12A (D). The class given is cell-based. The procedure: as §1, §2, §3
The test system of another assay is MCF-7 cells. As to the kind of experiment: Sulforhodamine B antiproliferative assay, MCF-7. The class given is cell-based, human. As to conditions: for IC50: sulforhodamine B assay, 48 h of treatment, read-out: IC50 MCF-7 (C); for SI E/C / SI D/C: selectivity index; for SI E/C: HFF-1 vs MCF-7; for SI D/C: MCF12A vs MCF-7. The procedure: as §1, §2, §3
[4] abbreviates: range over the four alkaloids and MDA-MB-231, MDA-MB-468, MCF-7.

The structures appear in SMILES notation. Read-outs that look alike come from different tables or passages of the source.

Take `COc1cc(O)c(C(C)=O)c(OC)c1` [Compound 1, 4,6-dimethoxy-2-hydroxy acetophenone]: the IC50 (as a rule, the point on the concentration scale where inhibition reaches its midpoint) in the assay with MDA-MB-231 cells [1] (Homo sapiens, MDA-MB-231, 48 h) was > 40000 nM.
On the same count and under the same terms, in the case of `COc1cc(/C=C/C(=O)NCCc2ccc(O)cc2)ccc1O` [Compound 2, N-trans-feruloyl-tyramine] it was > 40000 nM.
As to `CO[C@@H]1C=C[C@@]23c4cc5c(cc4[C@@H](O)N(C[C@H]2O)[C@H]3C1)OCO5` [Compound 3, haemanthidine], the “antiproliferative activity against MDA-MB-231 breast cancer cells” value in the assay with MDA-MB-231 cells [2] was “antiproliferative activity”. In addition, the IC50 with MDA-MB-231 cells [1] (Homo sapiens, MDA-MB-231, 48 h) is 4880 nM; in the assay on MDA-MB-231 cells [1] it was 4900 ± 1160 nM; in the assay with HFF-1 cells, 2700 ± 150 nM; in assay [3] (setting [4]), 730 to 16300 nM; in the assay on MDA-MB-468 cells (Homo sapiens, MDA-MB-468, 48 h), 3500 ± 300 nM; in the assay with MCF12A cells it was 5000 ± 500 nM. The IC50 with MCF-7 cells (Homo sapiens, MCF7, 48 h) was 2700 ± 100 nM. Besides, the “SI E/A” value in the assay on MDA-MB-231 cells [1] was 0.56. In the assay with MDA-MB-231 cells [1], the “SI D/A” value was 1.02. The “SI E/B” value in the assay on MDA-MB-468 cells is recorded as 0.78. For the same compound, in the assay on MDA-MB-468 cells, the “SI D/B” value was determined as 1.42. For the same compound, the “SI E/C” value in the assay with MCF-7 cells is on record as 1.01. Besides, the “SI D/C” value with MCF-7 cells was determined as 1.85.
`CN1CCC2=C[C@H](O)C3OC(=O)c4cc5c(cc4C3C21)OCO5` (stereo partly drawn) [Compound 4, hippeastrine]: the IC50 in the assay with MDA-MB-231 cells [1] (Homo sapiens, MDA-MB-231, 48 h) was 24700 ± 4300 nM.
In the case of `O[C@H]1[C@H]2c3cc4c(cc3CN3CCC(=C[C@@H]1O)[C@H]23)OCO4` [Compound 5, lycorine], the “antiproliferative activity against MDA-MB-231 breast cancer cells” value with MDA-MB-231 cells [2] is given as “antiproliferative activity”. In addition, the 50% inhibitory concentration (IC50) with MDA-MB-231 cells [1] (Homo sapiens, MDA-MB-231, 48 h) was 920 nM; in the assay with MDA-MB-231 cells [1], 900 ± 200 nM; in the assay with HFF-1 cells, 1300 ± 300 nM; in assay [3] (setting [4]), 730 to 16300 nM; with MDA-MB-468 cells (Homo sapiens, MDA-MB-468, 48 h), 1420 nM; in the assay with MDA-MB-468 cells, 1400 ± 10 nM. Further, the half-maximal inhibitory concentration (IC50) came to 3000 ± 300 nM with MCF12A cells; 730 nM with MCF-7 cells (Homo sapiens, MCF7, 48 h); 700 ± 10 nM in the assay with MCF-7 cells. For the same compound, the “SI E/A” value with MDA-MB-231 cells [1] was determined as 1.41. The “SI D/A” value in the assay with MDA-MB-231 cells [1] was found to be 3.26. Further, the “SI E/B” value in the assay on MDA-MB-468 cells stood at 0.91. Also, in the assay on MDA-MB-468 cells, the “SI D/B” value was 2.11. In addition, the “SI E/C” value in the assay on MCF-7 cells was determined as 1.78.
As for `COc1ccc2c3c1O[C@H]1C[C@@H](O)C=C[C@@]31C(O)CN(C)C2` (stereo partly drawn) [Compound 6, 11α-hydroxygalanthamine], in the assay with MDA-MB-231 cells [1] (Homo sapiens, MDA-MB-231, 48 h), the IC50 is > 40000 nM.
On the same count and under the same terms, in the case of `COc1ccc2c3c1O[C@H]1C[C@H](O)C=C[C@@]31CCN(C)C2` [Compound 8, epi-galanthamine] it was > 40000 nM.
Still for that read-out and setting: in the case of `COc1cc2c(cc1O)C(=O)OC1CC=C3CCN(C)C3C21` (stereo not drawn) [Compound 9, 8-O-demethylhomolycorine] it was > 40000 nM.
`CO[C@@H]1C=C[C@@]23c4cc5c(cc4CO[C@]2(O)CN(C)[C@H]3C1)OCO5` [Compound 10, tazettine]: the IC50 in the assay with MDA-MB-231 cells [1] (Homo sapiens, MDA-MB-231, 48 h) worked out at 39000 ± 1410 nM.
For `COC1C=CC23c4cc5c(cc4CN(CC2O)C3C1)OCO5` (stereo not drawn) [Compound 11, haemanthamine], in the assay on MDA-MB-231 cells [2], the “antiproliferative activity against MDA-MB-231 breast cancer cells” value is “antiproliferative activity”. In addition, the IC50 with MDA-MB-231 cells [1] (Homo sapiens, MDA-MB-231, 48 h) is 3950 nM; in the assay on MDA-MB-231 cells [1], 3900 ± 970 nM; with HFF-1 cells, 2700 ± 720 nM; in assay [3], 730 to 16300 nM; in the assay with MDA-MB-468 cells (Homo sapiens, MDA-MB-468) it was 3800 ± 400 nM; in the assay with MCF12A cells it was 6500 ± 1100 nM. For the same compound, the 50% inhibitory concentration (IC50) in the assay with MCF-7 cells (Homo sapiens, MCF7) is 1600 ± 100 nM. For the same compound, in the assay with MDA-MB-231 cells [1], the “SI E/A” value came to 0.68. Also, the “SI D/A” value in the assay on MDA-MB-231 cells [1] was 1.64. Besides, the “SI E/B” value with MDA-MB-468 cells turned out to be 0.71. Moreover, the “SI D/B” value in the assay with MDA-MB-468 cells is on record as 1.71. In the assay on MCF-7 cells, the “SI E/C” value is 1.7.
On to `COc1cc([C@@H]2c3cc4c(cc3[C@@H](O[C@@H]3O[C@@H]5CO[C@@H](C)O[C@H]5[C@H](O)[C@H]3O)[C@H]3COC(=O)[C@H]23)OCO4)cc(OC)c1O` [Etoposide, reference compound], for which the IC50 came to 2900 ± 100 nM in the assay on MDA-MB-231 cells [1] (Homo sapiens, MDA-MB-231, 48 h); 3800 ± 90 nM in the assay with HFF-1 cells; 1700 ± 50 nM in the assay with MDA-MB-468 cells (Homo sapiens, MDA-MB-468, 48 h); 2300 ± 130 nM in the assay on MCF12A cells; 3100 ± 50 nM with MCF-7 cells (Homo sapiens, MCF7, 48 h). The “SI E/A” value with MDA-MB-231 cells [1] is 1.31. In the assay on MDA-MB-231 cells [1], the “SI D/A” value is 0.79. Also, in the assay on MDA-MB-468 cells, the “SI E/B” value is given as 2.23. In addition, in the assay with MDA-MB-468 cells, the “SI D/B” value was 1.35. Also, the “SI E/C” value in the assay with MCF-7 cells is reported as 1.23. Further, the “SI D/C” value in the assay with MCF-7 cells is reported as 0.74.

The values above are taken from article PMC9501014, “Amaryllidaceae-Type Alkaloids from Pancratium maritimum: Apoptosis-Inducing Effect and Cell Cycle Arrest on Triple-Negative Breast Cancer Cells” (Molecules, 2022).
